Tests used:
[1] = molecular target: α1G T-type calcium channel (Homo sapiens, UniProt O43497); test: Assay for T-type calcium channel inhibition activity (FDSS6000 calcium imaging, KCl activation); assay type: cell-based; settings: 75 s pre-treatment then KCl 75 mM, HEK293 cells expressing α1G T-type calcium channel and Kir2.1
TREK-1 channel = molecular target: T1, TREK-1 channel (Rattus norvegicus, UniProt Q920B6); test: Assay for TREK channel inhibition activity (whole cell patch clamp recording, COS7 cell transfected with GFP-rTREK-1); assay type: cell-based; settings: COS-7, Table 3 (value ± spread); 101 μM [sic]; COS7 cells, GFP-rTREK-1, whole-cell patch clamp; read-out: block % at 101 μM
T1 construct: expressed in transfected cells; host or cells: COS7 (Korean Cell Line Bank), transient transfection with Effectene
T1 sequence (Q920B6 1-426): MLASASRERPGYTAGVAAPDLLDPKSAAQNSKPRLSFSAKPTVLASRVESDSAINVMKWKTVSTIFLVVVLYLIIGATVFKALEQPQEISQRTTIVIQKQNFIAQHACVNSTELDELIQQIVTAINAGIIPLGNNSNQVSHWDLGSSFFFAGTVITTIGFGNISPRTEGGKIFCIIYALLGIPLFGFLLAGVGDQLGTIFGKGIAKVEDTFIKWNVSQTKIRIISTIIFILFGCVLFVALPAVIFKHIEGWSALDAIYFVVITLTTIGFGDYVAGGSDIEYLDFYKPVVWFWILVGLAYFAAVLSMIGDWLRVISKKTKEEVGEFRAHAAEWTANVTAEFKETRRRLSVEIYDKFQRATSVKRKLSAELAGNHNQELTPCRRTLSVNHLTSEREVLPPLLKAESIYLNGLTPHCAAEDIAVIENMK
How it was run: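 Whole-cell patch clamp was run on COS7 cells 24 h after transfection with GFP-rTREK-1, held at −70 mV, using a 1 s ramp from −100 to +100 mV. Current was taken as the difference between +100 and −100 mV values. Block % = 100 − (current after/before blocker) × 100.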

Sequence of α1G T-type calcium channel (O43497 whole entry): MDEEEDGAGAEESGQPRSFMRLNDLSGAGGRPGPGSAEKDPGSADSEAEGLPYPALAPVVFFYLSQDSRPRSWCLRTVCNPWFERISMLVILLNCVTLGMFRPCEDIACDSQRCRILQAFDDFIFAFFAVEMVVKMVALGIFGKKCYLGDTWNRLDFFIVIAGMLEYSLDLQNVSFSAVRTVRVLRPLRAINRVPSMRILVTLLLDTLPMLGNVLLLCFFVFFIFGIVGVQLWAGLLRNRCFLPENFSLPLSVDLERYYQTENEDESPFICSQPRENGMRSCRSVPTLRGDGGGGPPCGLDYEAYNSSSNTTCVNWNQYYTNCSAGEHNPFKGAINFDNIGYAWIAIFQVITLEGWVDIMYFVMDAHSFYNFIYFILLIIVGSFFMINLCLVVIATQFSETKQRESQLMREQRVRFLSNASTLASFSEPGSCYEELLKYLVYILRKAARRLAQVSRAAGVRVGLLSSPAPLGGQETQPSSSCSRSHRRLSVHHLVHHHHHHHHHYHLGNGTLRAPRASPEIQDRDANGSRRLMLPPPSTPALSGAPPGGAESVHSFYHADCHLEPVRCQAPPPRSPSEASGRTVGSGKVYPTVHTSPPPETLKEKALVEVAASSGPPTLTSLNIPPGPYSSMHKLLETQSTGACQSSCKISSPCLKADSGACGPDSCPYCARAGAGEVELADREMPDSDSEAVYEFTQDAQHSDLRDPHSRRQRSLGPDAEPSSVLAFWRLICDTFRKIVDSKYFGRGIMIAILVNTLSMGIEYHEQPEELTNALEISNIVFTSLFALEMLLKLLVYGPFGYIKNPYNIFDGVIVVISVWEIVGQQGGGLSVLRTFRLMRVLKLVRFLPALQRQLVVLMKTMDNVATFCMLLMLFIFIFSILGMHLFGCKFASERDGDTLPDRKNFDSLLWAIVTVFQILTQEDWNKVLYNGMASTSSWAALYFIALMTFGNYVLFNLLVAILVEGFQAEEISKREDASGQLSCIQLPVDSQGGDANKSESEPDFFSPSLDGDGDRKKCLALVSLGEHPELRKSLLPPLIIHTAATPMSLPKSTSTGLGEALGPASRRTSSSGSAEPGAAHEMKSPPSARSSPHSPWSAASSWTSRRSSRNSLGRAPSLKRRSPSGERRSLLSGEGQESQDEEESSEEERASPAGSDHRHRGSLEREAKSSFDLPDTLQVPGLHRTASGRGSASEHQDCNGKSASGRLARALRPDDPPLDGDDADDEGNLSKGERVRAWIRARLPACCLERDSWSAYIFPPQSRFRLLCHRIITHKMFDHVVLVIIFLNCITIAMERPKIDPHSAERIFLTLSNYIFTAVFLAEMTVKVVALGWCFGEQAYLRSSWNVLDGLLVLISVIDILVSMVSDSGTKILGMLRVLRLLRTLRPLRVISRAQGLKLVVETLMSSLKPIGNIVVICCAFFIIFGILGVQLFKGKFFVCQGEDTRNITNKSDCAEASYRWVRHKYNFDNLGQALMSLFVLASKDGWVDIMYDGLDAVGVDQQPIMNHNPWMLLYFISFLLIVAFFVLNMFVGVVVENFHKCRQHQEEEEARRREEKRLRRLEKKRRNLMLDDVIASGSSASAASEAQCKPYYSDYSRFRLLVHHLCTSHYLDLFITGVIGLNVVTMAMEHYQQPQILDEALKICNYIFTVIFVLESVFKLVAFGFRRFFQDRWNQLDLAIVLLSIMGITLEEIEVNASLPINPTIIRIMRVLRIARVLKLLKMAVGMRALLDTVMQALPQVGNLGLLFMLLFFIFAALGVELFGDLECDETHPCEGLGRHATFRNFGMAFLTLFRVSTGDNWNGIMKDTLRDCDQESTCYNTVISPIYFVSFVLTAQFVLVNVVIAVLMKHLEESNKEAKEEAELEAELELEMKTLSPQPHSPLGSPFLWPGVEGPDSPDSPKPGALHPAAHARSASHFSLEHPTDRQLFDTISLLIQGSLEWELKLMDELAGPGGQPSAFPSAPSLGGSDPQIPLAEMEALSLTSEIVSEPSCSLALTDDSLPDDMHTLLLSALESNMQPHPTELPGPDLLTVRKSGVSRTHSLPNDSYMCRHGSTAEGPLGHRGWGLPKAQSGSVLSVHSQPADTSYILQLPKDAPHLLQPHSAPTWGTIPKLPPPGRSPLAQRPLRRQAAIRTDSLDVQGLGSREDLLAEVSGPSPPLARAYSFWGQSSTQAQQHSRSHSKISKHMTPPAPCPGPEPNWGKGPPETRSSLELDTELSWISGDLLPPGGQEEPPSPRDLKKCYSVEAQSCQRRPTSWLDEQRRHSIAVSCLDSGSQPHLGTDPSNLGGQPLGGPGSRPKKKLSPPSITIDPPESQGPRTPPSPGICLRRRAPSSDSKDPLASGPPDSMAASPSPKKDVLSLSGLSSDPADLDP

Compound | inhibition [1] [%] | inhibition at 101 µM (TREK-1 channel) [%]
Cc1ccc(F)cc1-n1nc(CNC(=O)CN2CCN(C[C@H](O)COc3ccc(C(F)(F)F)cc3)CC2)cc1CC(C)C [KKRE10221, (S)-N-((1-(5-fluoro-2-methylphenyl)-5-isobutyl-1H-pyrazol-3-yl)methyl)-2-(4-(2-hydroxy-3-(4-(trifluoromethyl)phenoxy)propyl)piperazin-1-yl)acetamide] | 68.9 | 83.1 ± 4.99
Cc1ccccc1-n1nc(CNC(=O)CN2CCN(C[C@H](O)COc3ccc(F)cc3)CC2)cc1CC(C)C [KKRE10227, (S)-2-(4-(3-(4-Fluorophenoxy)-2-hydroxypropyl)piperazin-1-yl)-N-((5-isobutyl-1-o-tolyl-1H-pyrazol-3-yl)methyl)acetamide] | 74.7 | 69.8 ± 4.78
CC(C)Cc1cc(CNC(=O)CN2CCN(C[C@H](O)COc3ccc(F)cc3)CC2)nn1-c1ccc(F)cc1 [KKRE10228, (S)-2-(4-(3-(4-Fluorophenoxy)-2-hydroxypropyl)piperazin-1-yl)-N-((1-(4-fluorophenyl)-5-isobutyl-1H-pyrazol-3-yl)methyl)acetamide] | 73.2 | 58.6 ± 4.35
Cc1ccc(F)cc1-n1nc(CNC(=O)CN2CCN(C[C@H](O)COc3ccc(F)cc3)CC2)cc1CC(C)C [KKRE10229, (S)-N-((1-(5-Fluoro-2-methylphenyl)-5-isobutyl-1H-pyrazol-3-yl)methyl)-2-(4-(3-(4-fluorophenoxy)-2-hydroxypropyl)piperazin-1-yl)acetamide] | 77.6 | 74.1 ± 2.75
CC(C)Cc1cc(CNC(=O)CN2CCN(C[C@H](O)COc3ccc(F)cc3)CC2)nn1-c1cc(Cl)cc(Cl)c1 [KKRE10230, (S)-N-((1-(3,5-Dichlorophenyl)-5-isobutyl-1H-pyrazol-3-yl)methyl)-2-(4-(3-(4-fluorophenoxy)-2-hydroxypropyl)piperazin-1-yl)acetamide] | 60 | 78.1 ± 2.95

More lines, now with the values ahead:

inhibition [1] [%] | inhibition at 101 µM (TREK-1 channel) [%] | Compound
79.2 | 51.2 ± 12.5 | Cc1ccccc1-n1nc(CNC(=O)CN2CCN(C[C@H](O)COc3ccc(C(F)(F)F)cc3)CC2)cc1CC(C)C [KKRE10222, (S)-2-(4-(2-Hydroxy-3-(4-(trifluoromethyl)phenoxy)propyl)piperazin-1-yl)-N-((5-isobutyl-1-o-tolyl-1H-pyrazol-3-yl)methyl)acetamide]
63.4 | 87.6 ± 2.43 | CC(C)Cc1cc(CNC(=O)CN2CCN(C[C@@H](O)COc3ccc(F)cc3)CC2)nn1-c1cc(Cl)cc(Cl)c1 [KKRE10223, (R)-N-((1-(3,5-Dichlorophenyl)-5-isobutyl-1H-pyrazol-3-yl)methyl)-2-(4-(3-(4-fluorophenoxy)-2-hydroxypropyl)piperazin-1-yl)acetamide]
77.8 | 45.1 ± 3.6 | Cc1ccc(F)cc1-n1nc(CNC(=O)CN2CCN(C[C@@H](O)COc3ccc(F)cc3)CC2)cc1CC(C)C [KKRE10224, (R)-N-((1-(5-Fluoro-2-methylphenyl)-5-isobutyl-1H-pyrazol-3-yl)methyl)-2-(4-(3-(4-fluorophenoxy)-2-hydroxypropyl)piperazin-1-yl)acetamide]
81.1 | 13.1 ± 6.19 | Cc1ccccc1-n1nc(CNC(=O)CN2CCN(C[C@@H](O)COc3ccc(F)cc3)CC2)cc1CC(C)C [KKRE10225, (R)-2-(4-(3-(4-Fluorophenoxy)-2-hydroxypropyl)piperazin-1-yl)-N-((5-isobutyl-1-o-tolyl-1H-pyrazol-3-yl)methyl)acetamide]
78.8 | 18.8 ± 7.78 | CC(C)Cc1cc(CNC(=O)CN2CCN(C[C@@H](O)COc3ccc(F)cc3)CC2)nn1-c1ccc(F)cc1 [KKRE10226, (R)-2-(4-(3-(4-Fluorophenoxy)-2-hydroxypropyl)piperazin-1-yl)-N-((1-(4-fluorophenyl)-5-isobutyl-1H-pyrazol-3-yl)methyl)acetamide]
